“Also recorded” adds a separate entry of the source. Where two headings read alike, the source gives them in different places.
Tests used:
Assay type in all cases: biochemical
[1] = biological target: M. tuberculosis lumazine synthase (recombinant homopentameric) (Mycobacterium tuberculosis, UniProt P9WHE9); conditions: for inhibitory activity in words: lumazine synthase inhibition, qualitative statement
[2] = biological target: M. tuberculosis riboflavin synthase (recombinant) (Mycobacterium tuberculosis, UniProt P9WK35); assay: Kinetic assay of riboflavin synthase inhibitors, M. tuberculosis enzyme; conditions: for Kcat (rate constant ES → E + P) / Kis (ES + I ⇌ ESI) / Ks (substrate dissociation constant, E + S ⇌ ES) / Ki (E + I ⇌ EI): substrate 3 varied, Tris·HCl pH 7.0
Sequence of M. tuberculosis riboflavin synthase (recombinant) (P9WK35 whole entry): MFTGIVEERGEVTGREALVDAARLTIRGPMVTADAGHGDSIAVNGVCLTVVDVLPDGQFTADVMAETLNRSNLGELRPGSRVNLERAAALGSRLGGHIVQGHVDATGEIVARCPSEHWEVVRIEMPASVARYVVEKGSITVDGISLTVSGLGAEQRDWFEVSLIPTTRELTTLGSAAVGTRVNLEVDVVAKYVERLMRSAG

[3] = biological target: T1, S. pombe lumazine synthase (recombinant homopentameric) (Schizosaccharomyces pombe, UniProt Q9UUB1); assay: Kinetic assay of lumazine synthase inhibitors, S. pombe enzyme; conditions: for Kcat (rate constant ES → E + P) / Kis (ES + I ⇌ ESI) / Ks (substrate dissociation constant, E + S ⇌ ES): substrate 2 constant, substrate 1 varied, Tris·HCl pH 7.0
T1 sequence (Q9UUB1 1-159): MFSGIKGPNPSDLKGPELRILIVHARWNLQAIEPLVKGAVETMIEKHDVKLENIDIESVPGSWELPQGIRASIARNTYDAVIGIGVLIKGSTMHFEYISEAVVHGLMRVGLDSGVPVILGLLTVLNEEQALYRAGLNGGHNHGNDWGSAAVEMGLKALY

[4] = biological target: E. coli riboflavin synthase (recombinant) (Escherichia coli, UniProt P0AFU8); assay: Kinetic assay of riboflavin synthase inhibitors, E. coli enzyme; conditions: for Kcat (rate constant ES → E + P) / Ks (substrate dissociation constant, E + S ⇌ ES) / Kis (ES + I ⇌ ESI): substrate 3 varied, Tris·HCl pH 7.0
Sequence of E. coli riboflavin synthase (recombinant) (P0AFU8 whole entry): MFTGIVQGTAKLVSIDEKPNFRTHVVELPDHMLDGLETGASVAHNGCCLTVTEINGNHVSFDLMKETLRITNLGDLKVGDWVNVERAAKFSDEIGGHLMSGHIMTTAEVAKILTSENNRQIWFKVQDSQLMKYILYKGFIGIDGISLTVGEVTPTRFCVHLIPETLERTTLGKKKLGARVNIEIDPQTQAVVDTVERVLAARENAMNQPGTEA

[5] = substrate 2 constant, substrate 1 varied, Tris·HCl pH 7.0

Sequence of M. tuberculosis lumazine synthase (recombinant homopentameric) (P9WHE9 whole entry): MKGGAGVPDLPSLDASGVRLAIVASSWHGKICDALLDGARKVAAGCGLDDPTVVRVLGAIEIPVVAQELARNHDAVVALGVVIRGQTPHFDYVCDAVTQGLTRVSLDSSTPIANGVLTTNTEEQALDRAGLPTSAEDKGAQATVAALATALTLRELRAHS

Row | Structure (SMILES) | Mechanism of inhibition [1] | Kcat (rate constant ES → E + P) ([1]; pH 7) [m^−1] | Ks (substrate dissociation constant, E + S ⇌ ES) [1, 5] [µM] | Mechanism of inhibition [2] | Kcat (rate constant ES → E + P) [2] [m^−1] | Kis (ES + I ⇌ ESI) [2] [µM] | Ks (substrate dissociation constant, E + S ⇌ ES) [2] [µM] | Mechanism of inhibition [3] | Kcat (rate constant ES → E + P) [3] [m^−1] | Kis (ES + I ⇌ ESI) [3] [µM] | Ks (substrate dissociation constant, E + S ⇌ ES) [3] [µM] | Mechanism of inhibition [4] | Kcat (rate constant ES → E + P) [4] [m^−1] | Ks (substrate dissociation constant, E + S ⇌ ES) [4] [µM] | inhibitory activity in words [1] | Ki (E + I ⇌ EI) [1, 5] [mM] | Kis (ES + I ⇌ ESI) [1, 5] [µM] | Kis (ES + I ⇌ ESI) [4] [µM] | Ki (E + I ⇌ EI) [2] | Kcat (rate constant ES → E + P) [1, 5] [m^−1]
1 | C=C(C)C(=O)Nc1c(SC[C@H](O)[C@H](O)[C@H](O)CO)[nH]c(=O)[nH]c1=O [Compound 51] | Competitive | 0.92 ± 0.03 | 17 ± 1 | Uncompetitive | 0.84 ± 0.01 | > 1000 | 10 ± 0 | – | – | – | – | – | – | – | – | – | – | – | – | –
2 | O=c1[nH]c(OC[C@H](O)[C@H](O)[C@H](O)CO)c([N+](=O)[O-])c(=O)[nH]1 [Compound 22, 5-Nitro-6-((2S,3R,4R)-2,3,4,5-tetrahydroxypentyloxy)pyrimidine-2,4(1H,3H)-dione] | Competitive | 0.19 ± 0.00 | 25 ± 2 | Partial | 0.26 ± 0.01 | 26 ± 6 | 7.1 ± 0.7 | Partial | 1.4 ± 0.0 | 110 ± 40 | 1.4 ± 0.1 | Competitive | 3.3 ± 0.01 | 2.6 ± 0.2 | – | – | – | – | – | –
3 | CCOC(=O)C(=O)Nc1c(OC[C@H](O)[C@H](O)[C@H](O)CO)[nH]c(=O)[nH]c1=O [Compound 36, Ethyl 2-(2,4-dioxo-6-((2S,3R,4R)-2,3,4,5-tetrahydroxypentyloxy)1,2,3,4-tetrahydropyrimidin-5-ylamino)-2-oxoacetate] | Uncompetitive | 0.26 ± 0.01 | 34 ± 5 | Uncompetitive | 0.25 ± 0.01 | >1000 | 5.0 ± 0.5 | Uncompetitive | 2.7 ± 0.1 | >1000 | 6.4 ± 0.6 | Uncompetitive | 5.8 ± 0.2 | 3.0 ± 0.3 | completely inactive; also recorded: totally inactive | > 1 | >1000 | >1000 | – | –
4 | COC(=O)C(=O)Nc1c(OC[C@H](O)[C@H](O)[C@H](O)CO)[nH]c(=O)[nH]c1=O [Compound 37, Methyl 2-(2,4-dioxo-6-((2S,3R,4R)-2,3,4,5-tetrahydroxypentyloxy)1,2,3,4-tetrahydropyrimidin-5-ylamino)-2-oxoacetate] | Competitive | 0.18 ± 0.00 | 29 ± 2 | Uncompetitive | 0.22 ± 0.01 | 868 ± 305 | 4.1 ± 0.4 | Partial | 1.5 ± 0.0 | 56 ± 15 | 1.7 ± 0.2 | Uncompetitive | 3.4 ± 0.1 | 3.1 ± 0.2 | – | – | – | >1000 | 0.868 mM | –
5 | O=C(CCl)Nc1c(NC[C@H](O)[C@H](O)[C@H](O)CO)[nH]c(=O)[nH]c1=O [Compound 63, 2-Chloro-N-(2,4-dioxo-6-((2S,3S,4R)-2,3,4,5-tetrahydroxypentylamino)-1,2,3,4-tetrahydropyrimidin-5-yl)acetamide] | Partial | – | 24 ± 2 | Uncompetitive | 0.66 ± 0.01 | > 1000 | 8.6 ± 0.4 | – | – | – | – | – | – | – | – | – | 53 ± 12 | – | – | 0.62 ± 0.02
6 | C=C(C)C(=O)Nc1c(OC[C@H](O)[C@H](O)[C@H](O)CO)[nH]c(=O)[nH]c1=O [Compound 46] | Uncompetitive | 0.57 ± 0.01 | 12 ± 1 | Uncompetitive | 0.58 ± 0.01 | >1000 | 9.2 ± 0.6 | – | – | – | – | – | – | – | – | > 1 | >1000 | – | – | –
7 | C=C(C)C(=O)Nc1c(Cl)[nH]c(=O)[nH]c1=O [Compound 78, N-(6-Chloro-2,4-dioxo-1,2,3,4-tetrahydropyrimidin-5-yl)methacrylamide] | Uncompetitive | – | 18 ± 2 | Uncompetitive | 0.58 ± 0.4 | 694 ± 88 | 8.6 ± 0.4 | – | – | – | – | – | – | – | – | – | >1000 | – | – | 0.53 ± 0.03
8 | CC(Cl)C(=O)Nc1c(NC[C@H](O)[C@H](O)[C@H](O)CO)[nH]c(=O)[nH]c1=O (stereo partly drawn) [Compound 60, 2-Chloro-N-(2,4-dioxo-6-((2S,3S,4R)-2,3,4,5-tetrahydroxypentylamino)1,2,3,4-tetrahydropyrimidin-5-yl)propanamide] | Competitive | – | 17 ± 1 | Competitive | 0.72 ± 0.01 | – | 11 ± 1 | – | – | – | – | – | – | – | – | – | – | – | – | 0.85 ± 0.03
9 | CC1(O)C(=O)Nc2c([nH]c(=O)[nH]c2=O)N1C[C@H](O)[C@H](O)[C@H](O)CO (stereo partly drawn) [Compound 69, 7-Hydroxy-7-methyl-8-[(2S,3S,4R)-2,3,4,5-tetrahydroxypentyl)-7,8-dihydropteridin-2,4,6(1H, 3H, 5H)-trione] | Competitive | – | 19 ± 2 | Competitive | 0.67 ± 0.02 | – | 8.9 ± 0.7 | – | – | – | – | – | – | – | – | – | – | – | submicromolar | 0.59 ± 0.02
10 | CCC(=O)Nc1c(SC[C@H](O)[C@H](O)[C@H](O)CO)[nH]c(=O)[nH]c1=O [Compound 49] | Competitive | 0.65 ± 0.01 | 11 ± 1 | Uncompetitive | 0.76 ± 0.01 | > 1000 | 10 ± 1 | – | – | – | – | – | – | – | – | – | 128 | – | – | –
11 | CC(C)C(=O)Nc1c(OC[C@H](O)[C@H](O)[C@H](O)CO)[nH]c(=O)[nH]c1=O [Compound 40] | Uncompetitive | 0.59 ± 0.01 | 16 ± 1 | Uncompetitive | 0.84 ± 0.02 | 698 ± 108 | 9.3 ± 0.6 | – | – | – | – | – | – | – | totally inactive | – | 766 ± 97 | – | – | –
12 | O=C(CC(F)(F)F)Nc1c(NC[C@H](O)[C@H](O)[C@H](O)CO)[nH]c(=O)[nH]c1=O [Compound 66, N-(2,4-Dioxo-6-((2S,3S,4R)-2,3,4,5-tetrahydroxypentylamino)-1,2,3,4-tetrahydropyrimidin-5-yl)-3,3,3-trifluoropropanamide] | Partial | – | 20 ± 1 | Uncompetitive | 0.18 ± 0.1 | > 1000 | 6.6 ± 0.3 | – | – | – | – | – | – | – | – | – | 309 ± 125 | – | – | 0.76 ± 0.02
13 | C=C(C)C(=O)Nc1c(NC[C@H](O)[C@H](O)[C@H](O)CO)[nH]c(=O)[nH]c1=O [Compound 56, N-[2,4-Dioxo-6-((2S,3S,4R)-2,3,4,5-tetrahydroxypentylamino]-1,2,3,4-tetrahydropyrimidin-5-yl)methacrylamide] | Uncompetitive | – | 19 ± 2 | Partial | 0.57 ± 0.02 | 35 ± 14 | 7.0 ± 0.6 | – | – | – | – | – | – | – | inactive | > 1 | > 1000 | – | – | 0.52 ± 0.02
14 | CCC(=O)Nc1c(OC[C@H](O)[C@H](O)[C@H](O)CO)[nH]c(=O)[nH]c1=O [Compound 43] | Uncompetitive | 0.39 ± 0.00 | 18 ± 2 | Uncompetitive | 0.21 ± 0.00 | >1000 | 4.4 ± 0.2 | – | – | – | – | – | – | – | totally inactive | – | – | – | – | –
